Like-named read-outs stand apart in the source and are kept apart here.
Columns and labels:
[1] = system: adjuvant-induced arthritis; assay: Established Adjuvant-Induced Arthritis in Rats; assay type: in vivo, Charles River Lewis male rats; conditions: rat; for ED50: oral gavage, dosed on day of grouping and 6 following days, ED50% decrease from control paw volume (uninjected left hind paw), read-out: Adjuvant Arthritic ED50; for Adjuvant Arthritic, paw volume reduction at the indicated dose: oral
[2] = system: phenylquinone-induced writhing (pain); assay: Phenylquinone Writhing Test; assay type: in vivo, female white mice; conditions: read-out: Phenylquinone Writhing ED50
Description: A test compound suspended in 1% methylcellulose was given orally to fasted (17-21 hours) female white mice, 5-20 animals per double blind test. Aqueous (0.01% phenyl-p-benzoquinone) phenylquinone, 0.20 ml per mouse, was injected intraperitoneally 6 minutes before observations were begun.

[3] = mouse, oral, fasted, effective analgesic dose for 50% of the mice

SMILES	ED50 [1] [mg/kg]	ED50 [2, 3] [mg/kg]	other results
FC(F)C(F)(F)Sc1nc2c([nH]1)C(c1ccccc1)Oc1ccccc1-2 (stereo not shown) [Example 1, 3,4-Dihydro(or 1,4-dihydro)-2-[(1,1,2,2-tetrafluoroethyl)thio]-4-phenyl-[1]benzopyrano[3,4-d]imidazole]	3.4	1.3	
Fc1ccc(C2Oc3ccccc3-c3nc(SC(F)(F)C(F)F)[nH]c32)cc1 (stereo not shown) [Example 3, 3,4-Dihydro(or 1,4-dihydro)-2-[(1,1,2,2-tetrafluoroethyl)thio]-4-(4-fluorophenyl)-[1]benzopyrano[3,4-d]-imidazole]	4	0.79	
O=S(=O)(c1nc2c([nH]1)C(c1ccccc1)Oc1ccccc1-2)C(F)(F)C(F)F (stereo not shown) [Example 2, 3,4-Dihydro(or 1,4-dihydro)-2-[(1,1,2,2-tetrafluoroethyl)sulfonyl]-4-phenyl-[1]benzopyrano[3,4-d]imidazole]	1.3	0.19	
FC(F)(F)CSc1nc2c([nH]1)C(c1ccccc1)Oc1ccccc1-2 (stereo not shown) [Example 9]			Adjuvant Arthritic, paw volume reduction at the indicated dose ([1]; at 20 (mg/kg)): 30%
CC(=O)Oc1ccccc1C(=O)O [Aspirin, aspirin, reference compound]			ED50 ([2]; Mus musculus, po): 135 mg/kg
O=S(=O)(c1nc2c([nH]1)C(c1ccccc1)Oc1ccccc1-2)C(F)(F)F (stereo not shown) [Example 5, 3,4-Dihydro(or 1,4-dihydro)-2-[(trifluoromethyl)sulfonyl]-4-phenyl-[1]benzopyrano[3,4-d]imidazole]	0.8	0.16	
CC(C)Cc1ccc(C(C)C(=O)O)cc1 (stereo not shown) [Ibuprofen, ibuprofen, reference compound]		10	
COc1ccc(C2Oc3ccccc3-c3nc(SC(F)(F)C(F)F)[nH]c32)cc1 (stereo not shown) [Example 7]		< 4	
COc1ccc2c(c1)c(CC(=O)O)c(C)n2C(=O)c1ccc(Cl)cc1 [Indomethacin, indomethacin, reference compound]			ED50 ([2]; Mus musculus, po): 0.35 mg/kg
CCCCC1C(=O)N(c2ccccc2)N(c2ccccc2)C1=O [Phenylbutazone, phenylbutazone, reference compound]		80	
CS(=O)(=O)c1nc2c([nH]1)C(c1ccccc1)Oc1ccccc1-2 (stereo not shown) [Example 6, 3,4-Dihydro(or 1,4-dihydro)-2-(methylsulfonyl)-4-phenyl-[1]benzopyrano[3,4-d]imidazole]		78	Adjuvant Arthritic, paw volume reduction at the indicated dose ([1]; at 27 (mg/kg)): 34%
FC(F)(F)Sc1nc2c([nH]1)C(c1ccccc1)Oc1ccccc1-2 (stereo not shown) [Example 4, 3,4-Dihydro(or 1,4-dihydro)-2-[(trifluoromethyl)thio]4phenyl-[1]benzopyrano[3,4-d]imidazole]		0.58	Adjuvant Arthritic, paw volume reduction at the indicated dose ([1]; at 9 (mg/kg)): 31%
CCSc1nc2c([nH]1)C(c1ccccc1)Oc1ccccc1-2 (stereo not shown) [Example 8]			Adjuvant Arthritic, paw volume reduction at the indicated dose ([1]; at 20 (mg/kg)): 18%

Reference: US4371541A, “Antiinflammatory and/or analgesic 3,4-dihydro-(or 1,4-dihydro)-4-aryl-2-((substituted)thio)-(1)-benzopyrano(3,4-d)imidazol es and their corresponding sulfoxides and sulfones” (E. I. Du Pont de Nemours and Company, priority 1982, dated 1983)
